Data set [1] concerns gastric-acid secretion. In words: Test of Inhibition of Gastric-Acid Secretion by Histamine Stimulation. Conditions: rat. The class given is in vivo, Male SD rats. As for the experimental part:
Test of Inhibition of Gastric-Acid Secretion by Histamine Stimulation
A feeding tube (fr. 3.5) for injecting test medicines was inserted into the duodenum, and the pylorus was ligatured. A polyethylene tube (inner diameter: 7 mm) was used in the anterior stomach and gastric fistula was performed. After washing the inside of the stomach with heated physiological salt solution (37° C.) several times, the body was closed. A tube with a fin was inserted into the caudal vein and was fastened with a tape and it was connected to a infusion pump (Harvard). The rats were enclosed in a KN Ballman II cage (Natsume Seisakusho). Gastric juice flowed from the fistula was collected with a messcylinder every one hour. Starting from one hour after the operation, histamine was continuously injected at a rate of 1.4 ml/hour through the caudal vein. Then, test compounds suspended in 0.5% sodium caboxy methyl cellulose (Na-CMC) were administered one hour after the start of the histamine injection. The gastric juice thus extracted in a period from one hour after the administration of the chemical to four hours after that was titrated by using an automatic titration apparatus (Kyoto Electronic) with 0.1N NaOH to adjust pH 7, and the quantity of the gastric juice was measured to obtain the total acid output.

Data set [2] deals with carrageenin plantar edema. Kind of data set: Test of Carrageenin Plantar Edema. The class given is in vivo, Male Wistar rats. As to conditions: for inhibition rate at the peak compared with that of indomethacin: 84.0 μmol/kg; for inhibition rate at the peak compared with that of indomethacin / ED50 value relative to that of indomethacin: compared with indomethacin; for ED50: read-out: Carrageenin edema ED50. As for the experimental part: Test of Carrageenin Plantar Edema
After the body weight of each rat had been measured, the volume of the right hind-leg of the rat was measured by using an apparatus for measuring plantar volumes. The rats were then divided into groups so that the groups have the same body weight average and plantar volume average. A test compound was suspended in an aqueous solution of 5% tragacanth gum and then orally administered to each of the rats. 0.1 ml of a physiological saline of 1% carrageenin was hypodarmically injected into the sole of the right hind-leg of each rat. The volume was measured for each rat every 1 hour for 5 hours. An edema rate was determined by using a rate of increase in the volume measured after treatment to the volume measured before treatment.
(Carrageenan injected into the paw causes an acute inflammation.)

Data set [3] deals with gastric mucosa. Kind of data set: Test of Injury to Gastric Mucosa. The class given is in vivo, Male Wistar rats. The arrangement: key to Ulcer Index: ulcer index determined by the Munchow method. Conditions: oral, rat; for Ulcer Index / Ulcer occurrence (%): 5 hours; for degree of injury to the gastric mucosa: as compared with indomethacin. As for the experimental part:
Test of Injury to Gastric Mucosa
Male Wistar rats each having a body weight of about 180 to 200 g were divided into groups consisting of 10 rats and were fasted for 24 hours. After body weight of each rat has been measured, a test compound was suspended in an aqueous solution of 5% tragacanth gum and then orally administered to each rat. The rats were fasted again, and after 5 hours had passed, they were killed by cervical dislocation. A 1% formalin solution was injected into the gastric cavity of each of the rats so that it was semifixed. The gaster of each rat was cut along the greater curvature of the stomach, and the ulcer index of each rat was measured under a stereoscopic microscope and determined by the Munchow method. The Mann-Whitney U-test was applied to the statistic data processing.

In data set [4] the test system is ICR male mice. Kind of data set: Acute Toxicity Test. It is filed as in vivo. As to conditions: oral, single dose 25, 50 and 75 mg/kg each. How it is done: A test compound was suspended in an aqueous solution of 5% gum arabic and then orally administered to each of 4 to 5-week old ICR male mice (Charles River Co., Ltd.) each having a body weight of 22 to 30 g in each group consisting of 3 to 4 mice, once in each of doses 25, 50, 75, 200 and 500 mg/kg.

Setting [5] is: oral, rat, dose 8.4 μmol/kg (Example 2 6.4, Example 5 6.9, indomethacin 3.0 mg/kg).
[6] abbreviates: oral, rat, dose 84.0 μmol/kg (Example 2 64.0, Example 5 69.0, indomethacin 30.0 mg/kg).
Setting [7] is: dose 25.2 μmol/kg (Example 2 19.2 mg/kg).
The mark [8] stands for this setting: dose 84.0 μmol/kg (Example 2 64.0, Example 5 69.0, indomethacin 30.0 mg/kg).
Setting [9] is: dose 84.0 μmol/kg (Example 2 64.0, Example 5 69.0, indomethacin 30.0 mg/kg), ** p < 0.01.
[10] abbreviates: oral, rat, dose 28.0 μmol/kg (Example 5 23.0, indomethacin 10.0 mg/kg).
[11] abbreviates: dose 28.0 μmol/kg (Example 5 23.0, indomethacin 10.0 mg/kg).
[12] abbreviates: dose 28.0 μmol/kg (Example 5 23.0, indomethacin 10.0 mg/kg), ** p < 0.01.

Several values for one entry are separate records, joined by “and”; a condition that tells them apart may be missing. Equal values may be shown once. Where a name gives a salt, the structure may show the parent alone. Read-outs that look alike come from different tables or passages of the source.

One may read the ED50 as the dose at which the effect has come halfway, by size or by number of responders.

As to `CN/C(=N/CCSCc1nc[nH]c1C)NC#N` [Cimetidine, reference compound], the “Gastric-acid secretion inhibition rate (%)” value in data set [1] (dose 30 mg/kg) amounted to 32.3%.

For `COc1ccc2c(c1)c(CC(=O)OCC(=O)NCCCOc1cccc(CN3CCCCC3)c1)c(C)n2C(=O)c1ccc(Cl)cc1` [Example 2, N-[3-[3-(piperidinomethyl)phenoxy]propyl]carbamoylmethyl 1-(4-chlorobenzoyl)-5-methoxy-2-methyl-3-indolylacetate maleate], the “inhibition rate at the peak compared with that of indomethacin” value in data set [2] (oral, rat) is reported as “slightly higher”. In addition, the “Carrageenin edema inhibition (%) rate at peak” value in data set [2] (setting [5]) amounted to 34.9%; in data set [2] (oral, rat, dose 25.2 μmol/kg (Example 2 19.2 mg/kg)), 50.4%; in data set [2] (setting [6]), 62.6%. Further, the “ED50 value relative to that of indomethacin” value in data set [2] (oral, rat) is reported as “substantially the same”. In data set [2] (oral, rat), the ED50 was 27.8 µmol/kg and 21.1 mg/kg. Also, the “Ulcer Index” value in data set [3] (setting [7]) is reported as 1.3 ± 0.63; in data set [3] (setting [9]), 5.9 ± 4.92; in data set [3] (dose 251.9 μmol/kg (Example 2 192.0 mg/kg), * p < 0.05), 17.5 ± 15.84. Also, the entries for the “Ulcer occurrence (%)” value in data set [3] (setting [7]), in data set [3] (setting [8]) and in data set [3] (dose 251.9 μmol/kg (Example 2 192.0 mg/kg)) were 0%, 14% and 40%, respectively. For the same compound, in data set [3], the “degree of injury to the gastric mucosa” value is on record as “extremely low degree of injury”.

Turning to `COc1ccc2c(c1)c(CC(=O)OCCSCC(=O)NCCCOc1cccc(CN3CCCCC3)c1)c(C)n2C(=O)c1ccc(Cl)cc1` [Example 5, 2-[N-[3-[3-(piperidinomethyl)phenoxy]propyl]carbamoylmethylthio]ethyl 1-(4-chlorobenzoyl)-5-methoxy-2-methyl-3-indolylacetate maleate], the “inhibition rate at the peak compared with that of indomethacin” value in data set [2] (oral, rat) is listed as “slightly higher”. Moreover, the “Carrageenin edema inhibition (%) rate at peak” value amounted to 19.1% in data set [2] (setting [5]); 41.2% in data set [2] (setting [10]); 68.4% in data set [2] (setting [6]); 72.7% in data set [2] (oral, rat, dose 280.0 μmol/kg (Example 5 230.0 mg/kg)). Also, the “ED50 value relative to that of indomethacin” value in data set [2] (oral, rat) is given as “about 2 times”. Also, the 50% effective dose (ED50) in data set [2] (oral, rat) was 47.8 µmol/kg and 39.3 mg/kg. The “Ulcer occurrence (%)” value in data set [3] (setting [11]) and in data set [3] (setting [8]) was 0% in each case. In addition, the results for the “Ulcer Index” value in data set [3] (setting [12]), in data set [3] (setting [9]) and in data set [3] (dose 280.0 μmol/kg (Example 5 230.0 mg/kg)) were 0.1 ± 0.01, 0.0 ± 0.00 and 0.0 ± 0.00, respectively. The “degree of injury to the gastric mucosa” value in data set [3] is recorded as “extremely low degree of injury”. For the same compound, the entries for the “Gastric-acid secretion inhibition rate (%)” value in data set [1] (dose 22 mg/kg) and in data set [1] (dose 44 mg/kg) were 47.4% and 74.1%, respectively.

With `COc1ccc2c(c1)c(CC(=O)O)c(C)n2C(=O)c1ccc(Cl)cc1` [Indomethacin, indomethacin, reference compound], the median effective dose (ED50) in data set [2] (Rattus norvegicus, po) is 20.6 µmol/kg and 7.4 mg/kg. The “Carrageenin edema inhibition (%) rate at peak” value in data set [2] (oral, rat, dose 2.8 μmol/kg (indomethacin 1.0 mg/kg)) turned out to be 24.6%; in data set [2] (setting [5]) it was 49.8%; in data set [2] (setting [10]) it was 59.4%; in data set [2] (setting [6]) it was 55.9%. Further, the “Ulcer occurrence (%)” value in data set [3] (setting [11]) amounted to 70%; in data set [3] (dose 56.0 μmol/kg (indomethacin 20.0 mg/kg)), 70%; in data set [3] (setting [8]) it was 80%. Moreover, the “Ulcer Index” value in data set [3] (setting [12]) is 46.5 ± 15.00; in data set [3] (dose 56.0 μmol/kg (indomethacin 20.0 mg/kg), ** p < 0.01) it was 52.8 ± 17.47; in data set [3] (setting [9]) it was 62.1 ± 16.50. Besides, the death of mice result in data set [4] is “all the mice in the groups, to which 25, 50 and 75 mg/kg of indomethacin were respectively administered, died”.

For the origin of these results see US5177223A, “Indoleacetic acid derivatives, process for their preparation, and medicines containing same as active ingredients” (Zeria Pharmaceutical Co., Ltd., priority 1988, dated 1993).
